From US7045343B2, “Sterilization indicator test packs” (3M Innovative Properties Company, priority 1998, dated 2006)

Columns and labels:
[1] = system: enzyme associated with Bacillus stearothermophilus spores; assay: Rapid enzyme fluorescence readout of dual rapid readout indicators after prevacuum steam sterilization; type: biochemical; conditions: 4-pulse prevacuum steam 121° C.; for FLUORESCENCE - PERCENT POSITIVE 1 HR / FLUORESCENCE - PERCENT POSITIVE 2 HR / FLUORESCENCE - PERCENT POSITIVE 3 HR / FLUORESCENCE - PERCENT POSITIVE 4 HR: Example 5, 7–13 min
Experimental: (§1) The indicators prepared for the Examples were dual rapid readout indicators that provided both a rapid, enzyme-based efficacy test and a confirmatory spore outgrowth test. Spores coated on the carrier strip 16 served as the source of active enzyme whose activity was measured by the rapid enzyme test. These same spores were then incubated in the spore outgrowth portion of the test.
(§2) Bacillus stearothermophilus, commercially available as ATCC 7953 from American Type Culture Collection, Rockville, Md., was grown overnight (16 hours) at 58° C. in tryptic soy broth. This culture was used to inoculate the surface of agar plates consisting of 8 g/l nutrient broth, 4 g/l yeast extract, 0.1 g/l manganese chloride and 20 g/l agar at pH 7.2. Plates were incubated at 58° C. for 72 hours. Spores were scraped from the plates and suspended in sterile distilled water. The spores were separated from the vegetative debris by centrifuging the suspension at 7000 rpm and 4° C. for 20 minutes. The supernatant was poured off and the spores were resuspended in sterile distilled water. The cleaning procedure was repeated several times. After the final wash, the spores were suspended in sterile distilled water, at a concentration of approximately 1×10^8 spores per milliliter.
(§3) The spores were then treated with the chemicals identified in Tables 1–5. All chemicals tested were obtained from commercial sources. The spores were centrifuged at 6000 rpm for 10 minutes. The supernatant and coating chemical mixtures were heated at 60–80° C. for several minutes and vortexed to get the material into solution. The spores were then mixed into the sterilant-resistant chemical solution. The sterilant-resistant chemical solution was applied to 5×25 mm, 591 A paper strips (Schleicher & Schuell, Inc., Keene, N.H.) by pipetting 10–15 microliters to each strip for a final population of about 1×10^6 spores per strip. The strips were dried 16 hours at 37° C.
(§4) The treated spore strips were placed on the bottom of the outer container 12 of the indicator 10 and a barrier was inserted between the spore strip 16 and the inner container 18, which contained enzyme substrate. A […] ( 11/16 inch) disc of polypropylene blown microfiber material, with a weight of 200 g/m^2, commercially available as “THINSULATE™ 200-B brand Thermal Insulation” from 3M Company, St. Paul, Minn., was used as the barrier. The inner container 18 contained 0.67 ml nutrient medium, consisting of 17 g of a bacteriological peptone and a 0.17 g/l of L-alanine, as well as 0.1 g 4-methylumbelliferyl-alpha-D-glucoside, commercially available from Sigma Chemical Company, St. Louis, Mo., dissolved in 200 microliters of N,N-dimethylformamide, and 0.03 g bromocresol purple pH indicator dye, per liter of water. The pH of the enzyme substrate and nutrient medium solution was adjusted to 7.6 with 0.1N sodium hydroxide.
(§5) Sterilization indicators were made as described above with each of the chemicals and concentrations described in Table 1. Control indicators were made using untreated spores. The indicators were placed in metal instrument trays and exposed at 121° C. in a Getinge Steam Sterilizer (Getinge International, Inc., 1100 Towbin Ave., Lakewood, N.J.) using a 4-pulse prevacuum cycle at 121° C. with a vacuum level of 0.075–0.085 bar and a steam pulse to 1.00 bar for each pulse. Indicators were exposed in the sterilizer for between 7 and 13 minutes. This cycle is depicted in the time-pressure diagram in FIG. 5. After exposure the inner containers containing the enzyme substrate and nutrient medium were crushed and the indicators were incubated at 60° C. The indicators were examined for fluorescence using a 3M™ ATTEST™ Model 190 Rapid Autoreader, commercially available from 3M Company, St. Paul, Minn. Additionally, spore growth, as indicated by a color change from purple to yellow, was determined visually after 168 hours of incubation at 60° C. […]

[2] = system: Bacillus stearothermophilus spores; assay: Spore outgrowth (color change) of indicators after prevacuum steam sterilization; type: cell-based; conditions: Example 5, 4-pulse prevacuum steam 121° C., 7–13 min
Experimental: as §1, §2, §3, §4, §5

Substance | FLUORESCENCE - PERCENT POSITIVE 1 HR ([1]; 50 mg/ml coating) | FLUORESCENCE - PERCENT POSITIVE 2 HR ([1]; 50 mg/ml coating) | FLUORESCENCE - PERCENT POSITIVE 3 HR ([1]; 50 mg/ml coating) | FLUORESCENCE - PERCENT POSITIVE 4 HR ([1]; 50 mg/ml coating) | NO. GROWTH POSITIVE 168 HR ([2]; 50 mg/ml coating) | accuracy of sterilization indicators compared to indicators made with untreated spores [1] | FLUORESCENCE - PERCENT POSITIVE 1 HR ([1]; 100 mg/ml coating) | FLUORESCENCE - PERCENT POSITIVE 2 HR ([1]; 100 mg/ml coating) | FLUORESCENCE - PERCENT POSITIVE 3 HR ([1]; 100 mg/ml coating) | FLUORESCENCE - PERCENT POSITIVE 4 HR ([1]; 100 mg/ml coating) | NO. GROWTH POSITIVE 168 HR ([2]; 100 mg/ml coating)
POE(15) Glyceryl Monooleate | 0% | 0% | 0% | 0% | 1 | – | – | – | – | – | –
Decaglyceryl Monomyristate | 0% | 33.3% | 33.3% | 33.3% | 3 | improved | 0% | 100% | 100% | 100% | 2
polyoxyethylene (5) glyceryl monostearate [POE (5) Glyceryl Monostearate] | 0% | 100.0% | 100.0% | 100.0% | 15 | improved | 0% | 100% | 100% | 100% | 5
